These results are taken from patent US12227500B2, “Substituted pyrrolo[2,3-b]pyridines for suppressing toxic endoplasmic reticulum stress” (THE TRUSTEES OF COLUMBIA UNIVERSITY IN THE CITY OF NEW YORK, priority 2018, dated 2025).

Data set [1] in a line: Plasma and brain concentration 30 min after IP injection. Format: in vivo, mouse. Particulars: male, C57BL6/J, mouse, mice, ip dosing, 30 minutes; for Kp at 30 min: brain/plasma, read-out: B/P. As for the experimental part: All studies were performed on 6-week old male C57BL6/J mice that were housed in the Columbia University Medical Center facility in a 12h light/dark cycle with access to food and water ad libitum. All animal procedures were approved by the Columbia University IACUC. […] Animals were weighed and injected once intraperitoneally (IP) at the indicated dose (10 or 20 mg/kg). After 30 min, animals were deeply anesthetized with 2.5% Avertin. Whole blood was collected by cardiac puncture in tubes containing 0.5M EDTA as an anticoagulant, and centrifuged for 10 min at 845 rcf at 4° to isolate plasma. Following cardiac puncture, animals were decapitated and brains were dissected and weighed. Brain samples were homogenized with a glass dounce homogenizer in 5 volumes of ddH2O. Brain and plasma samples were snap frozen in liquid nitrogen and stored at −80° C. before further processing.
The plasma samples were transferred to Eppendorf tubes (50 μL per sample) and diluted with acetonitrile (200 μL). The samples were sonicated for 1 minute followed by centrifugation at 16,000 rpm for 10 minutes. The supernatant was transferred to another Eppendorf tube and the solvent evaporated overnight. The samples were reconstituted in a mixture of 40 μL acetonitrile and 10 μL water transferred to a sample vial with insert, and analyzed by LC-MS.
The homogenized brain samples (250 μL) were transferred to Eppendorf tubes and diluted with acetonitrile (750 μL). The samples were sonicated for 1 minute followed by centrifugation at 16,000 rpm for 10 minutes. The supernatant (900 μL) was transferred to another Eppendorf tube and the solvent evaporated overnight. The samples were reconstituted in a mixture of 80 μL acetonitrile and 20 μL water, transferred to a sample vial with insert, and analyzed by LC-MS.
LC-MS analysis was performed on a platform comprising a Thermo Scientific Dionex Ultimate 3000 and a Bruker amaZon SL equipped with an electrospray ionization source controlled by Bruker Hystar 3.2. The compound concentration in each plasma sample was determined using a calibration curve. Chromatographic separation was performed by injecting 10 μL of the sample onto an Agilent Eclipse Plus C18 column (2.1×50 mm, 3.5 μm) maintained at 20° C. The flow rate was maintained at 400 μL/min. The initial flow conditions were 60% solvent A (water containing 0.1% acetic acid) and 40% solvent B (methanol containing 0.1% acetic acid). Solvent B was raised to 60% over 0.25 minutes and to 70% by 6.75 minutes.

The next data set is described as follows: in vitro. Conditions: CD-1, mouse, liver microsomes, pH 7.4. (Liver microsomes are a subcellular fraction often used to study metabolism.)
In data set [2] the target is T1, panel of 60 human kinases (Homo sapiens, UniProt Q9H2K8).
T1 construct: purchased Reaction Biology Corp
T1 sequence (Q9H2K8 1-898): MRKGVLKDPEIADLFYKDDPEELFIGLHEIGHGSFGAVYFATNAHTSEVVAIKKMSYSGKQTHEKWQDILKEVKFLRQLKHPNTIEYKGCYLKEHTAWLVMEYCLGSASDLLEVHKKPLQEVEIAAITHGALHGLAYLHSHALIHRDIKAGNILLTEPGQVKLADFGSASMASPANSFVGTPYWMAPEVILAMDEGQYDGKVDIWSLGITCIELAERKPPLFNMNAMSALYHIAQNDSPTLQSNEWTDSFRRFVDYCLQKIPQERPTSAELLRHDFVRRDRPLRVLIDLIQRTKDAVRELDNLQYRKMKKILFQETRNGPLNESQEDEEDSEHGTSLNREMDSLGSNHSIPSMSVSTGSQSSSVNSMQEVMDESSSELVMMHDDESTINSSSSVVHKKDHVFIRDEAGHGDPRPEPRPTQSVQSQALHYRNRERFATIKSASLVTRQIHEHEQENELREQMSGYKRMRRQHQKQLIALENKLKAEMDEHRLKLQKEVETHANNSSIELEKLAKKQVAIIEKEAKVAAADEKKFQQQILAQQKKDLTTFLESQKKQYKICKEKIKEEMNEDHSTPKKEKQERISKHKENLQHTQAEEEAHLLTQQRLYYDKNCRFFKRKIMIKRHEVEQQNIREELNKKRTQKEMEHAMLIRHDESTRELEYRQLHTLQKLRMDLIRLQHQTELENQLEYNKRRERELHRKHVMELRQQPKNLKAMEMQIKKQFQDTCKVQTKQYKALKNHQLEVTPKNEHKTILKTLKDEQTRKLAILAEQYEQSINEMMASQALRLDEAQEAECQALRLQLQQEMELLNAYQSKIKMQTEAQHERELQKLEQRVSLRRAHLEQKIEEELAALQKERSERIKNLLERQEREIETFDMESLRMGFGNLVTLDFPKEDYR
As to the kind of experiment: Radiolabeled ATP kinase assay, panel of 60 kinases (Table S5). Format: biochemical. Particulars: TAOK3/JIK; 0.1 μM; 10 μM ATP; read-out: % Enzyme Activity (relative to DSMO controls). In a few lines:
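Compounds at two concentrations, 0.1 μM and 0.5 μM, were screened for inhibition of 60 kinases in cell-free assays read out by radiolabeled ATP.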

Broadly, the half-life is how long it takes for the measured level to halve. A lower half-life goes with rapid decline.

Values joined by “and” are separate entries in the source; they are usually repeats but may differ in a detail not shown here. Equal values may be shown once. Read-outs that look alike come from different tables or passages of the source.

Protocol for in vitro: To test the metabolic stability of the analogs, an in vitro microsomal stability assay was carried out.
The microsomal stability assay was performed in 96-well format (Perkin-Elmer, StorPlate-96U, PP, 96 well, round bottom). […] A stock solution of the compound to be analyzed (0.8 μL. 5 mM) or ethoxycoumarin (positive control, 0.8 μL, 5 mM) was added and the mixture was warmed to 37° C. for 5 minutes. The mouse microsomes (CD-1, 5 μL, thawed in a 37° C. water bath before use, 20 mg/mL, Life Technologies) were added. At selected time points (0, 15, 30, 45, 60 and 120 minutes) aliquots (15 μL) were withdrawn from the plate and quenched upon addition to cold acetonitrile (60 μL), containing an internal standard (5 μM) in a 96-well plate. The samples were centrifuged at 13,000 rpm for 10 minutes at 4° C. The supernatant (40 μL) was withdrawn and transferred to a sample vial with insert. The samples were analyzed by LC-MS.
LC-MS analysis was performed on a platform comprising a Thermo Scientific Dionex Ultimate 3000 and a Bruker amaZon SL equipped with an electrospray ionization source controlled by Bruker Hystar 3.2. […] The flow rate was maintained at 400 μL/min. The initial flow conditions were 60% solvent A (water containing 0.1% acetic acid) and 40% solvent B (methanol containing 0.1% acetic acid).
Aliquots were taken over the course of two hours and analyzed by HPLG-MS using an internal standard to assess compound stability over time.

`CN1CCN(Cc2ccc(-c3cnc4[nH]cc(-c5ccc6[nH]ccc6c5)c4c3)cc2)CC1` [Compound 1, 3-(1H-Indol-5-yl)-5-(4-((4-methylpiperazin-1-yl)methyl)phenyl)-1H-pyrrolo[2,3-b]pyridine, reference compound]: the Kp at 30 min came to 0.3 in data set [1] (10 mg/kg) and 0.4 in data set [1] (20 mg/kg). Further, the concentration at 30 min in data set [1] (10 mg/kg, read-out: brain) is 1010 ng/g and 1.89 µM; in data set [1] (10 mg/kg, read-out: plasma) it was 3210 ng/mL and 6 µM; in data set [1] (20 mg/kg, read-out: brain) it was 1410 ng/g and 2.64 µM; in data set [1] (20 mg/kg, read-out: plasma), 3480 ng/mL and 6.5 µM. Also, in “in vitro”, the half-life at 20 μM was 7.8 min. Moreover, the remaining activity at 0.1 µM in data set [2] was 84%.
For the molecule `CN1CCN(Cc2ccc(-c3cnc4[nH]cc(-c5cccc(Cl)c5)c4c3)cc2)CC1` [Compound 7ad, 3-(3-Chlorophenyl)-5-(4-((4-methylpiperazin-1-yl)methyl)phenyl)-1H-pyrrolo[2,3-b]pyridine], the half-life at 20 μM in the data set “in vitro” was > 30 min. Also, the remaining activity at 0.1 µM in data set [2] was found to be 92%.
`CN1CCN(Cc2ccc(-c3cnc4[nH]cc(-c5cnn(Cc6ccccc6)c5)c4c3)cc2)CC1` [Compound 7ah, 3-(1-Benzyl-1H-pyrazol-4-yl)-5-(4-((4-methylpiperazin-1-yl)methyl)phenyl)-1H-pyrrolo[2,3-b]pyridine]: the remaining activity at 0.1 µM in data set [2] was 77.4%.
Same read-out and setting: next, `Cc1nn(C)c(C)c1-c1c[nH]c2ncc(-c3ccc(CN4CCN(C)CC4)cc3)cc12` [Compound 7ai, 5-(4-((4-Methylpiperazin-1-yl)methyl)phenyl)-3-(1,3,5-trimethyl-1H-pyrazol-4-yl)-1H-pyrrolo[2,3-b]pyridine]: 102%; `CN1CCN(Cc2ccc(-c3cnc4[nH]cc(-c5ccccc5Cl)c4c3)cc2)CC1` [Compound 7as, 3-(2-Chlorophenyl)-5-(4-((4-methylpiperazin-1-yl)methyl)phenyl)-1H-pyrrolo[2,3-b]pyridine]: 69.8%.
With `COc1ccccc1-c1c[nH]c2ncc(-c3ccc(CN4CCN(C)CC4)cc3)cc12` [Compound 7at, 3-(2-Methoxyphenyl)-5-(4-((4-methylpiperazin-1-yl)methyl)phenyl)-1H-pyrrolo[2,3-b]pyridine], the half-life at 20 μM in the data set “in vitro” is > 30 min. Besides, the remaining activity at 0.1 µM in data set [2] amounted to 65.5%.
`CN1CCN(Cc2ccc(-c3cnc4[nH]cc(-c5ccc6c(c5)OCCO6)c4c3)cc2)CC1` [Compound 7d, 3-(2,3-Dihydrobenzo[b][1,4]dioxin-6-yl)-5-(4-((4-methylpiperazin-1-yl)methyl)phenyl)-1H-pyrrolo[2,3-b]pyridine]: in data set [2], the remaining activity at 0.1 µM amounted to 67.9%.
For `CN1CCN(Cc2ccc(-c3cnc4[nH]cc(-c5ccncc5)c4c3)cc2)CC1` [Compound 7n, 5-(4-((4-Methylpiperazin-1-yl)methyl)phenyl)-3-(pyridin-4-yl)-1H-pyrrolo[2,3-b]pyridine], in data set [2], the remaining activity at 0.1 µM was 94.9%.
The same measure, in the same setting: next, `CN1CCN(Cc2ccc(-c3cnc4[nH]cc(-c5ccoc5)c4c3)cc2)CC1` [Compound 7w, 3-(Furan-3-yl)-5-(4-((4-methylpiperazin-1-yl)methyl)phenyl)-1H-pyrrolo[2,3-b]pyridine]: 95.2%.
With `OCCN1CCN(Cc2ccc(-c3cnc4[nH]cc(-c5cccc(Cl)c5)c4c3)cc2)CC1` [Compound 12k, 2-(4-(4-(3-(3-Chlorophenyl)-1H-pyrrolo[2,3-b]pyridin-5-yl)benzyl)piperazin-1-yl)ethan-1-ol], the results for the Kp at 30 min in data set [1] (10 mg/kg) and in data set [1] (20 mg/kg) were 3.3 and 4, respectively. Also, the concentration at 30 min in data set [1] (10 mg/kg, read-out: brain) is 1230 ng/g and 2.74 µM; in data set [1] (10 mg/kg, read-out: plasma), < 375 ng/mL and < 840 nM; in data set [1] (20 mg/kg, read-out: brain), 5180 ng/g and 11.6 µM; in data set [1] (20 mg/kg, read-out: plasma), 1290 ng/mL and 2.88 µM. In “in vitro”, the half-life at 20 μM was > 120 min.
